Series [1] deals with erythrocytic forms of P. falciparum (strain 3D7). The experiment in a line: Viability screening of antiplasmodial activity (SYBR-gold DNA quantification, 96 h). In kind it is cell-based, Plasmodium falciparum. The note with it: for activity at 0.3 µM / activity at 3 µM: 96 h; for activity at 0.3 µM: read-out: Parasitemia (3D7) at 0.3 µM [%]; for activity at 3 µM: read-out: Parasitemia (3D7) at 3 µM [%]; for SI (Selectivity index for 3D7 erythrocytic forms versus HEK293 cells): 3D7 versus HEK293 cells.

The next series deals with rPfGSK-3 (Plasmodium falciparum, UniProt O77344). Briefly: KinaseGlo Plus assay for inhibition of PfGSK-3. In kind it is biochemical. Background: Kinase-Glo reads ATP consumption through a luciferase reaction.
A further series deals with rHsGSK-3. The experiment in a line: KinaseGlo Plus assay for inhibition of HsGSK-3. The note with it: for rHsGSK-3 Activity at 10 µM [%]: remaining activity, calculated on DMSO controls, Table 4. Type of series: biochemical, human. The method, then:
A commercial luminescence-based kinase assay was used to investigate the enzymatic activity of kinases and to test potential kinase inhibitors. The KinaseGlo Plus assay (KinaseGlo Plus, Promega, Madison, WI, USA) provides a linear luminescence signal at ATP concentrations up to 100 μM and offers high signal stability. First, the kinase to be investigated and a corresponding substrate in the presence of ATP are used to perform the kinase reaction. During the substrate phosphorylation, ATP is consumed depending on the kinase activity. Subsequently, luminescence is generated by means of luciferase which is contained in the KinaseGlo Reagent. The intensity of the luminescence signal depends on the amount of ATP remaining in the reaction mixture. The luminescence […] to the enzymatic activity of the kinase. The following approach was used for the kinase reaction: rPfGSK-3 (see 3.4) or rHsGSK-3 (Promega, Madison, WI, USA) (20 ng), GS-1 substrate (Promega, Madison, WI, USA) (12 µg) and ATP (6 µg) (Ultra Pure, Promega, Madison, WI, USA) in 1× kinase reaction buffer (40 mM Tris-HCl pH 7.5, 20 mM MgCl2, 0.1 mg/mL BSA; final reaction volume 5 µL). The kinase reaction was performed for 30 min at 30 °C. The reaction mixture was then mixed with KinaseGlo Reagent (5 µL) and incubated for 10 min at room temperature. The mixture was transferred to a white 384-well plate (NUNC, ThermoFisher, Waltham, MA, USA) and the luminescence signal was measured in an EnVision Multilable Plate Reader (PerkinElmer, Waltham, MA, USA; integration time 0.5 sec/well). For the investigation, potential kinase inhibitors could be added directly to the kinase reaction. All kinase inhibitors were dissolved in DMSO. By appropriate pre-dilution of the inhibitors in kinase reaction buffer the final DMSO concentration in the kinase reaction was at most 1%. As negative control 1% DMSO without substance was measured. Since the luminescence signal is […] proportional to the ATP concentration, a control reaction (reaction without kinase) was measured simultaneously. The difference between kinase reaction and control reaction corresponds to the kinase activity. Using GraphPad Prism (version 6) the measured values were plotted and normalized to the DMSO control.

The next series is described as follows: in vitro. Type of series: cell-based, human. The note with it: human, HEK293T Viability at 30 µM [%]. As to the method: (§1) Cytotoxic effects of test compounds on eukaryotic cells were investigated using a HEK293T cell viability assay. First, the cell density of a HEK293T culture was determined. […] The supernatant was then aspirated and fresh culture medium was added to 200 μL into which the test compounds were previously added. All substances were previously dissolved in DMSO. […] The viability of the cells was then examined by adding PrestoBlue® Cell Viability Agent (Invitrogen, Carlsbad, CA, USA). The supernatant was removed, 10% PrestoBlue® was added in preheated PBS and the culture was incubated for 30 min at 37 °C. In cells with an active metabolism, the PrestoBlue dye is reduced, causing it to fluorescence. The fluorescence (λex = 560 nm, λem = 590 nm) was measured in an EnVision Multilable Plate Reader (Perkin Elmer, Waltham, MA, USA; integration time 0.1 sec/well).

A further series relates to HEK293T cells. The experiment in a line: in vitro. In kind it is cell-based, human. The note with it: 30 µM. The method, then:
as §1

Where [2] appears, read: Plasmodium falciparum, 3D7, strain 3D7, erythrocytic forms.
Where [3] appears, read: Plasmodium falciparum, 0.3 µM, strain 3D7, calculated on DMSO controls.
[4] abbreviates: Plasmodium falciparum, 3 µM, strain 3D7, calculated on DMSO controls.
Where [5] appears, read: 10 µM, remaining activity, calculated on DMSO controls, Table 3, read-out: rPfGSK-3 Activity at 10 µM [%].
Where [6] appears, read: read-out: rPfGSK-3 Activity at 10 µM [%], 10 µM, remaining activity, calculated on DMSO controls, Table 3.

Like-named read-outs stand apart in the source and are kept apart here.

rPfGSK-3, sequence (O77344 entry or part of it): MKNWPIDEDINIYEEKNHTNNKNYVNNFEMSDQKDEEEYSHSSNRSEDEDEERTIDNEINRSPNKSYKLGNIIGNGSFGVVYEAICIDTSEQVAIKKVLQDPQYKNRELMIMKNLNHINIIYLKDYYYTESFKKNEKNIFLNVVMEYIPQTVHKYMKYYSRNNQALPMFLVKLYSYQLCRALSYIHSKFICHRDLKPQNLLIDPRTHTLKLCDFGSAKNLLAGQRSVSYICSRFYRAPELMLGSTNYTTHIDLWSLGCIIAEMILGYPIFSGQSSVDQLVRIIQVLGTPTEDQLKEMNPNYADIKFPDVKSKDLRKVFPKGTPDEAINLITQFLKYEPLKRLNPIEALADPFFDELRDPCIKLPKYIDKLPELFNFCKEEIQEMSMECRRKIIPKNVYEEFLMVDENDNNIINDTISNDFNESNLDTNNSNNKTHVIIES

Turning to `N#Cc1c(N)nc2sc(C(=O)Nc3ccc(Cl)cc3)c(N)c2c1-c1ccccc1Cl` [Compound 3], the IC50 (commonly the concentration that inhibits the measured activity by half) in series [1] (setting [2]) was 199 nM; in series [1] (strain 3D7, erythrocytic forms), 199 nM. Besides, the “inhibition of plasmodial GSK-3 (in words)” value at rPfGSK-3 is “neither an inhibitor”. Besides, the “inhibition of human GSK-3 (in words)” value in the series with rHsGSK-3 is “neither an inhibitor”.

Take `CNC(=O)c1sc2nc(N)c(C#N)c(-c3cccc(C)c3)c2c1N` [Compound 9j, 3,6-Diamino-5-cyano-N-methyl-4-(3-methylphenyl)thieno[2,3-b]pyridine-2-carboxamide]: the activity at 0.3 µM in series [1] (setting [3]) was 74.6 ± 28.6%. The activity at 3 µM in series [1] (setting [4]) was 108 ± 24.2%. Besides, the viability (in general, a read-out of living cells in per cent, often relative to untreated cells) at 48 h, 30 µM in “in vitro” stood at 67.2 ± 21.5%. For the same molecule, in the series on rHsGSK-3, the “rHsGSK-3 Activity at 10 µM [%]” value is reported as 87.6 ± 7.4%.

For `Cc1cccc(-c2c(C#N)c(N)nc3sc(C(=O)NC4CC4)c(N)c23)c1` [Compound 9m, 3,6-Diamino-5-cyano-N-cyclopropyl-4-(3-methylphenyl)thieno[2,3-b]pyridine-2-carboxamide], in series [1] (setting [3]), the activity at 0.3 µM is 74.9 ± 15.7%. In series [1] (setting [4]), the activity at 3 µM is 88 ± 18.2%. The same molecule displayed a viability at 48 h, 30 µM in the series “in vitro” of 74.3 ± 31.1%. Besides, the remaining activity at 10 µM on rPfGSK-3 (setting [5]) is less than 40%. Also, the “rHsGSK-3 Activity at 10 µM [%]” value in the series with rHsGSK-3 is 93.8 ± 2.1%.

On to `Cc1cccc(-c2c(C#N)c(N)nc3sc(C(=O)NCCN4CCOCC4)c(N)c23)c1` [Compound 9n, 3,6-Diamino-5-cyano-N-(2-morpholinoethyl)-4-(3-methylphenyl)thieno[2,3-b]pyridine-2-carboxamide], for which the activity at 0.3 µM in series [1] (setting [3]) was 58.7 ± 25.9%. The activity at 3 µM in series [1] (setting [4]) is 91.6 ± 19.2%. Moreover, the viability at 48 h, 30 µM in the series “in vitro” amounted to 70.9 ± 23.6%. Further, on rPfGSK-3 (setting [5]), the remaining activity at 10 µM is less than 40%. Further, in the series on rHsGSK-3, the “rHsGSK-3 Activity at 10 µM [%]” value was 93.9 ± 3.2%.

With `Nc1c(C(=O)Nc2ccc(Cl)cc2)sc2nc3c(c(-c4ccccc4)c12)CCC3` [Compound 17b, 3-Amino-N-(4-chlorophenyl)-4-phenyl-6,7-dihydro-5H-cyclopenta[b]thieno[3,2-e]pyridine-2-carboxamide], the “SI (Selectivity index for 3D7 erythrocytic forms versus HEK293 cells)” value in series [1] is given as greater than 100. In addition, it took 192 nM to reach half-maximal inhibition in series [1] (setting [2]) (IC50). Besides, in series [1] (setting [3]), the activity at 0.3 µM was 7.2 ± 11.3%. The activity at 3 µM in series [1] (setting [4]) is 7.7 ± 14.7%. For the same molecule, the viability at 48 h, 30 µM in the series “in vitro” was 92.7 ± 11.7%. The “HEK293T Viability at 30 µM [%]” value in the series with HEK293T cells (human, 48 h) stood at 89.0 ± 15.8%. In addition, the remaining activity at 10 µM on rPfGSK-3 (setting [6]) is 104 ± 15.5%.

In the case of `Nc1c(C(=O)Nc2ccc(F)cc2)sc2nc3c(c(-c4ccccc4)c12)CCC3` [Compound 17c, 3-Amino-N-(4-fluorophenyl)-4-phenyl-6,7-dihydro-5H-cyclopenta[b]thieno[3,2-e]pyridine-2-carboxamide], the “SI (Selectivity index for 3D7 erythrocytic forms versus HEK293 cells)” value in series [1] was greater than 100. This molecule gave a half-inhibitory concentration (IC50) in series [1] (setting [2]) of 71.6 nM. Also, the activity at 0.3 µM in series [1] (setting [3]) is 23.6 ± 16.5%. Besides, the activity at 3 µM in series [1] (setting [4]) is 9.9 ± 17.1%. Besides, the “IC50 (3D7) [nM]” value in series [1] (strain 3D7, erythrocytic forms) is recorded as “two-digit nanomolar range”. In “in vitro”, this molecule displayed a viability at 48 h, 30 µM of 92.7 ± 11.7%. Moreover, in the series with HEK293T cells (human, 48 h), the “HEK293T Viability at 30 µM [%]” value worked out at 72.4 ± 23.4%. The remaining activity at 10 µM at rPfGSK-3 (setting [6]) was 103 ± 6.2%.

For the molecule `Cc1cccc(-c2c3c(nc4sc(C(=O)Nc5ccc(Cl)cc5)c(N)c24)CCCC3)c1` [Compound 17e, 3-Amino-N-(4-chlorophenyl)-4-(3-methylphenyl)-5,6,7,8-tetrahydrothieno[2,3-b]quinoline-2-carbox-amide], in series [1] (0.3 µM, strain 3D7, calculated on DMSO controls), the “Parasitemia (3D7) at 0.3 µM [%]” value is reported as 5.0 ± 11.6%. For the same molecule, the “Parasitemia (3D7) at 3 µM [%]” value in series [1] (3 µM, strain 3D7, calculated on DMSO controls) is reported as 4.7 ± 13.5%. Moreover, in the series with HEK293T cells, the “HEK293T Viability at 30 µM [%]” value was 57.9 ± 20.6%. Moreover, at rPfGSK-3 (10 µM, remaining activity, calculated on DMSO controls, Table 3), the “rPfGSK-3 Activity at 10 µM [%]” value is given as 103.1 ± 10.7%.

Consider `Cc1cc(-c2ccc(N3CCN(C(=O)OC(C)(C)C)CC3)cc2Cl)c2c(N)c(C(=O)Nc3ccc(Cl)cc3)sc2n1` [Compound 17l, tert-Butyl 4-(4-{3-amino-2-[(4-chlorophenyl)carbamoyl]-6-methylthieno[2,3-b]pyridin-4-yl}-3-chloro-phenyl)piperazine-1-carboxylate], for which, in series [1], the “SI (Selectivity index for 3D7 erythrocytic forms versus HEK293 cells)” value is greater than 100. In addition, the IC50 in series [1] (setting [2]) stood at 55.5 nM. Also, the activity at 0.3 µM in series [1] (setting [3]) was 25.5 ± 14.4%. Also, the activity at 3 µM in series [1] (setting [4]) is 1 ± 6.9%. In series [1] (strain 3D7, erythrocytic forms), the “IC50 (3D7) [nM]” value is reported as “two-digit nanomolar range”. In addition, the viability at 48 h, 30 µM in “in vitro” turned out to be 68.4 ± 24.3%. In addition, the remaining activity at 10 µM at rPfGSK-3 (setting [5]) was 103 ± 12.9%.

Values taken from article PMC7397174, “4-Arylthieno[2,3-b]pyridine-2-carboxamides Are a New Class of Antiplasmodial Agents” (Molecules, 2020).
